From EP4417616A1, “LXR ANTAGONISTS” (Ospedale San Raffaele S.r.l., priority 2023, dated 2024) come the findings set out here.

The target in one test is T1, LXRβ-LBD (Homo sapiens, UniProt P55055).
T1 construct: expressed in transfected cells; host or cells: Huh7 (printed 'Hhu7') human liver cell line
T1 sequence (P55055 222-460 limits assumed): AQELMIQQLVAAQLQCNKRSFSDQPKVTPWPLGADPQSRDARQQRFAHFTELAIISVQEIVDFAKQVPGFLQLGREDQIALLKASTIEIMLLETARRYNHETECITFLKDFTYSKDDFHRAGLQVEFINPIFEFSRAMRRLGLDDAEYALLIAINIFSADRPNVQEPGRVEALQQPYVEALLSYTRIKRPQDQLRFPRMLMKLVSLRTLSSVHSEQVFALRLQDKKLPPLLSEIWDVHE
Put plainly: Mammalian two-hybrid assay, RAP250-Del4 with pVP16-LXRβ-LBD. The class given is cell-based. Conditions: ligand alone, 10 µM; Huh7 cells.

The next test has as its target T2, LXRα-LBD (Homo sapiens, UniProt Q13133).
T2 construct: expressed in transfected cells; host or cells: Huh7 (printed 'Hhu7') human liver cell line
T2 sequence (Q13133 209-447 limits assumed): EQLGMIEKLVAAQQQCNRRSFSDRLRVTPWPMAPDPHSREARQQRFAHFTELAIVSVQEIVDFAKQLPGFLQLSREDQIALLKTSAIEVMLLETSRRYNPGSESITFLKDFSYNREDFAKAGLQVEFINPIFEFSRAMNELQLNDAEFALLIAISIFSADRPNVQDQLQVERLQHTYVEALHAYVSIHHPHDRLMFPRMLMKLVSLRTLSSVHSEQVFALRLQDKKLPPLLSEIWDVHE
Briefly: Mammalian two-hybrid assay, RAP250-Del4 with pVP16-LXRα-LBD. Conditions: ligand alone, 10 µM; Huh7 cells. It is filed as cell-based.

A further test concerns the target T3, LXRα (Homo sapiens, UniProt Q13133).
T3 construct: expressed in transfected cells; host or cells: HEK293
T3 sequence (Q13133 1-447): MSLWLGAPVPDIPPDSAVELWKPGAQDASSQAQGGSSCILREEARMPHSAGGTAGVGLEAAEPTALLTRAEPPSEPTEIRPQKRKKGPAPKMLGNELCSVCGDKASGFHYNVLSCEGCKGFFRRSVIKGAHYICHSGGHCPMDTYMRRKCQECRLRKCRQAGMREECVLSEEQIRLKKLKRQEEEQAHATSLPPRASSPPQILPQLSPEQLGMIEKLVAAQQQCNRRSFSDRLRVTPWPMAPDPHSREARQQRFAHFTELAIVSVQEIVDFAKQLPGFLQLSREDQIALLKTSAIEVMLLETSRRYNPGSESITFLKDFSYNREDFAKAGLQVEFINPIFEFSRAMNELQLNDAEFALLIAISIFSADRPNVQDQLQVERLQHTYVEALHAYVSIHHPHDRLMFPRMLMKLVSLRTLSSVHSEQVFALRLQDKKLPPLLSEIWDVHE
Briefly: Luciferase-based reporter assay for LXRα transcriptional activity (HEK293, Gal4-LXRα). It is filed as cell-based. Conditions: for antagonism of LXRα activation induced by 22R-HC: 22R-HC 5 or 10 µM, titrating amounts of compound (1-50 µM). As for the experimental part:
Reporter assay for nuclear receptor transcriptional activity. Human embryonic Kidney 293 cells (American Type Culture Collection) were cultured in Dulbecco's Modified Eagle's medium containing 10% of fetal bovine serum at 37°C in humidified atmosphere of 5% CO2. HEK293 cells (4×10^4 cells per well) were transiently transfected in 48 well plate with the reporter plasmids pMH100X4-TK-luc (100 ng/300µl), Renilla (22 ng/300µl) together with 100 ng/300µl of pCMX-Gal4-LXRα or pCMX-Gal4-LXRβ plasmids using X-tremeGENE 9 DNA Transfection Reagent (Roche). Six hours after transfection, the cells were treated with the appropriate compound for 24 hours. Luciferase activities were analyzed by luciferase Dual Reporter Assay Systems (Promega) according to the manufacturer's protocol. GAL4-LXRs, and TK-MHC100-luc plasmids were described in^7. […] Six hours after transfection, the cells were treated with the appropriate compound for 40 hours. Luciferase activity was analyzed as described above and protein content spectrophotometrically using Coomassie Plus Protein assay reagent (Thermo Scientific). Quantitative Real-Time-PCR. U937 cell line was differentiated in foam macrophages with phorbol 12-myristate 13-acetate (PMA) 10 ng/ml (Sigma) for 72 hours at 37°C in RPMI 10% FBS. At day 3 T0901317 (10 µM) or different amount of PFM037 (50, 25 and 10 µM) were added for 16 hours. Total RNA was purified by TRIZOL (Invitrogen). Reverse transcription was performed by MLV-reverse transcriptase (Promega). QPCR was performed using SYBR Green Master Mix (Applied Biosystems) and real-time PCR (Viia 7 Real Time PCR System, Applied Biosystems). PCR reactions were done in triplicate.

The test system of test [1] is Lewis Lung Carcinoma (LLC). Briefly: Treatment of LLC tumor-bearing mice. The class given is in vivo. The text has this: Tumor challenge experiments.
For a further test, the system named is LLC tumor cells. Put plainly: In vitro growth of LLC tumor cells. Conditions: compared with vehicle. The class given is cell-based, mouse.
For the next test, the system named is RMA lymphoma. Put plainly: Treatment of RMA tumor-bearing mice. Conditions: 300 µg i.v. 5 days/week.
[2] abbreviates: LLC-bearing mice, 300 µg i.v. 5 days/week from day 6-7, vs vehicle.

“Also recorded” adds a separate entry of the source.

Experimental for RMA lymphoma: Analysis of tumor infiltrating cells by flow cytometry. […] Tumors collected 7, 10, 12 or 14 days after injection were cut into small fragments and digested with Liberase TL (66 µg/ml, Roche) and DNAse I (150 µg/ml, Roche) for 25-30 minutes at 37 °C. Digested tissues were filtered by using a 75 µm diameter cell strainer. Single cell suspensions were stained with Live/Dead Violet kit reagents (Molecular Probes) for 30 minutes at 4°C. After washing, the cells were incubated for 5-10 minutes at RT with Fc-blocking solution (Anti-CD16/32, 10 µg/ml mouse Fc Block, BD) and then stained with various antibodies incubated at 4°C for 20 minutes. […] CD209a (5H10), CCR7 (4b12) and F4/80 (BM8) were from eBioscience. Rat IgG, Rat IgG2a, Rat IgG2b, Rat IgM and Hamster isotype control mAbs were used as controls (Biolegends and BD Biosciences). For intracellular staining, cells were incubated with PMA (100 ng/ml) and ionomycin (500 ng/ml) in the presence of 10 µg/ml of Brefeldin for 4 hours. Cells were then fixed using the IC Fixation buffer (eBioscience), permeabilized with 1x Permeabilization buffer (eBiosciences) and stained with anti-IFNy mAb. Samples were run by FACSCanto flow cytometer and analyzed by FlowJo software gating on live cells. FACS sorting was performed by using the FACSAria Fusion (BD)
Tumor challenge experiments. C57BL/6 mice were injected subcutaneously with LLC-Mock (1 ×10^6), LLC-SULT2B1b (1 ×10^6), RMA (2 ×10^5), or B16F1-OVA (2 ×10^5) tumor cells. […] Tumor size was evaluated by measuring perpendicular diameters by a caliper every 2-3 days. Data are reported as the average tumor volume ± SD. In selected experiments tumors were injected in Ccr2^-/-mice.
Treatment of tumor-bearing mice with LXR antagonists alone or with immunotherapy. Tumor-bearing mice were treated with 25-HC-3S or PFM037 6-7 days after tumor challenge. After 6-7 days, mice were randomly assigned to either treatment or vehicle groups. Mice were injected with 300 µg of either compound given i.v. for 5 days/week. […] B16F1-OVA-bearing mice were treated with 400 µg of PFM037 for 5 days/week. For controls of mAb experiments, mice were injected with 250 µg of rat IgG2a isotype control antibody. […] Tumors were collected and measured 14 days after tumor challenge.

As to `CC(C)CC[C@@H](O)[C@@H](C)[C@H]1CC[C@H]2[C@@H]3CC=C4C[C@@H](O)CC[C@]4(C)[C@H]3CC[C@]12C` [22R-HC], the luciferase activity entry at LXRβ-LBD and on LXRα-LBD was “induced luciferase activity” in each case.

With `CC(C)CC[C@H](O)[C@@H](C)[C@H]1CC[C@H]2[C@@H]3CC=C4C[C@@H](O)CC[C@]4(C)[C@H]3CC[C@]12C` [22S-HC, 22S-hydroxycholesterol], the “antagonism of LXRα activation induced by 22R-HC” value at LXRα is reported as “does not antagonize; also recorded: did not antagonize”.

Take `C[C@H](CCCC(C)(C)O)[C@H]1CC[C@H]2[C@@H]3CC=C4C[C@@H](OS(=O)(=O)O)CC[C@]4(C)[C@H]3CC[C@]12C` [25-HC-3S, 25-Hydroxycholesterol-3-sulfate, reference compound]: in test [1] (setting [2]), the “absolute numbers of tumor-infiltrating mono-DCs” value is “Higher” and the tumor growth entry is “delay of tumor growth”. Besides, in the test with LLC tumor cells, the “in vitro growth of LLC tumor cells” value was “grew in a similar manner”. In addition, the “numbers of tumor-infiltrating mono-DCs” value in the test on RMA lymphoma is given as “Higher”. Further, the tumor growth entry with RMA lymphoma (tumor weight at sacrifice) is listed as “tumor growth control”. Besides, on LXRα, the midpoint of inhibition, the IC50, lay at 12.7 µM and the “antagonism of LXRα activation induced by 22R-HC” value is recorded as “antagonized the LXRα activity in a dose-dependent manner”.

Take `C[C@@H]([C@H]1CC[C@H]2[C@@H]3CC=C4C[C@@H](O)CC[C@]4(C)[C@H]3CC[C@]12C)[C@@H](O)Cc1ccccc1` [PFM046, (22S)-23-Phenyl-24-norchol-5-en-3β,22-diol]: the tumor growth entry in test [1] (established LLC tumors, 300 µg/mouse every other day, Fig. 24B) is on record as “able to control LLC tumor growth; also recorded: controls tumor growth”.
